# Measurements from patent publication US20090253589A1, “Method for Testing Active Compounds” (Nambition GmbH, priority 2006, published 2009).
# “Also recorded” adds a separate entry of the source. Read-outs that look alike come from different tables or passages of the source.
# Legend:
# rhodopsin [1] = molecular target: T1, rhodopsin (Bos taurus, UniProt P02699); test: Single-molecule force spectroscopy (AFM) unfolding of rhodopsin in native ROS disc membranes: unfolding forces and pathways; design: ROS were purified from fresh bovine retinas as described [33]; from tissue; host or cells: bovine retina, rod outer segment (ROS) disc membranes; species or system bovine
# Target sequence in this assay (P02699 whole entry): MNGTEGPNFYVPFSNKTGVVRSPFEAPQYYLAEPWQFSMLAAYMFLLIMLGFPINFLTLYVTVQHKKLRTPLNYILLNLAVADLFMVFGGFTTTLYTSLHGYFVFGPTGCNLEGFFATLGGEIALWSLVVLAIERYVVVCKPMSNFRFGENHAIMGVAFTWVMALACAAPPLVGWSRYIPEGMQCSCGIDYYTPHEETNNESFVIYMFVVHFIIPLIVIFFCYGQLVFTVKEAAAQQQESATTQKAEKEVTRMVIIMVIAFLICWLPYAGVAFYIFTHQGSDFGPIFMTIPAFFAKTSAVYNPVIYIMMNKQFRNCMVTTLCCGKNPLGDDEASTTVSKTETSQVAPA
# [2] = molecular target: T2, rhodopsin Cys110-Cys187 disulfide bond (Bos taurus, UniProt P02699); test: SMFS of rhodopsin: ratio of 65 nm (intact Cys110-Cys187 bond) to 95 nm (absent bond) force-distance curves; design: species or system bovine; settings: for effect on ratio of intact to broken Cys110-Cys187 disulfide bonds (65 nm vs 95 nm rhodopsin): increasing Zn^2+ concentrations, FIG. 4
# T2 construct: ROS were purified from fresh bovine retinas as described [33]; from tissue; host or cells: bovine retina, rod outer segment (ROS) disc membranes
# From the text: This is due to the fact that the loop not unraveled by SMFS in the Cys110-Cys187 form is unfolded in the 95 nm form.
# These force spectra were obtained in substantial absence of zinc, since EDTA was used in the preparation of the ROS disc membranes.
# The ratio of the Cys110-Cys187 rhodopsin force-distance curves and the 95 nm rhodopsin force-distance curves was changed in the presence of dithiothreitol and N-ethylmaleimide. The ratio of the 65 nm curves to the 95 nm curves was 1:2 in the presence of dithiothreitol and 7:1 in the presence of N-ethylmaleimide. Dithiothreitol likely disrupts the Cys110-Cys187 disulfide bond, and N-ethylmaleimide alkylates Cys 185. The action of these two compounds likely occurs during the unfolding of rhodopsin, since the residues modified by these reagents are not accessible in the native structure of the protein, as can be judged from the known crystal structure of rhodopsin.
# AFM imaging and force spectroscopy were performed as described elsewhere. Disc membranes were adsorbed onto a freshly cleaved mica surface as described previously. For force measurements, the AFM stylus was approached to the Rh surface while applying a constant force of ˜1 nN. After a contact time of ˜0.5-1 s, the stylus was retracted from the membrane surface at a constant velocity of 300 nm/s. All experiments were performed in 150 mM KCl, 25 mM MgCl2, 20 mM Tris, pH 7.8, at room temperature. In experiments where rhodopsin was treated with 1 mM EDTA (Sigma), ZnCl2 (Fisher Scientific), CaCl2, CdCl2, CoCl2, or CuCl2, the buffer was supplemented with the specified amounts of the reagent and the pH adjusted to 7.8. When assayed with 0, 10, 25, 50, 100, 200 and 400 μM ZnCl2, rhodopsin in native ROS disc membranes was diluted in the dilution buffer with the required amount of ZnCl2 and incubated on ice for ˜40 mins—1 h in complete darkness. In the case of other metal ions the sample preparation was carried out in a similar way. In the experiment where 1 mM EDTA was used, 25 mM MgCl2 was not added to the buffer. All dilutions were carried out under dim red light and experiments performed in a completely dark room. Force curves were collected over a period of less than 1 h to prevent bleaching of rhodopsin. The red laser on the AFM promoted minimal bleaching of Rh. ROS membranes solubilized in n-dodecyl-β-D-maltoside were bleached less than 5% after incubation under the AFM laser for 1 hr.
# In the first step, the force-distance curves were separated based on their lengths. […] The number of extended amino acid residues at each peak was then calculated using the contour length obtained from the WLC fits. […] To measure the unfolding force and probability of unfolding for each individual structural segment, every event of each curve was analyzed.
# rhodopsin [3] = molecular target: T1, rhodopsin; test: SMFS cleavage experiment: ROS membranes digested with endoproteinase Glu-C, fraction of curves by length; design: total number of curves obtained from the uncleaved native Rh sample; from tissue; host or cells: bovine retina ROS membranes, treated with endoproteinase Glu-C (Roche Applied Science); species or system bovine
# Method: For cleavage experiments, ROS membranes (2 mg/mL) resuspended in Ringer's buffer (10 mM Hepes, 130 mM NaCl, 3.6 mM KCl, 2.4 mM MgCl2, 1.2 mM CaCl2, 0.02 mM EDTA, pH 7.4) were treated with endoproteinase Glu-C (Roche Applied Science, Indianapolis, Ind., USA) at a substrate to enzyme ratio of 10:1 (w/w). Membranes were digested with the enzyme for 2 h at room temperature and 1.5 h on ice. The reaction was terminated by washing membranes three times with Ringer's buffer containing 5 mM benzamidine (1 mL) and one time with buffer A (1 mL). Membranes were resuspended in buffer A for SMFS studies. For solubilization of rhodopsin (Rh), ROS membranes were resuspended in 20 mM BTP, 150 mM NaCl, 1% n-dodecyl-β-D-maltoside, pH 7.4. The membrane suspension was shaken at room temperature for 10 min and then centrifuged to remove insoluble material at 164,000×g for 30 min. Protein concentration was determined using the Bradford Protein Assay Kit from Bio-Rad Laboratories (Hercules, Calif., USA).
# As mentioned above the molecule could detach from the AFM stylus during unfolding. Therefore, for the cleavage experiments with endoproteinase Glu-C it is important to be certain that the <40 nm length force-distance curves are mainly from the N-terminal fragment of the molecule and not from the detached molecule. […]
# Target sequence in this assay (P02699 whole entry): as above
# Target sequence in this assay (P02699 240-341 limits assumed): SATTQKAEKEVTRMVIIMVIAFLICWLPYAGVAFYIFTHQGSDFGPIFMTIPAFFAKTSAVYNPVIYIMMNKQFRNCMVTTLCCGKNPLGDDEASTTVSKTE
# [4] = 200 μM metal ion in buffer, FIG. 3A
# [5] = dark state rhodopsin, native ROS disc membranes
# [6] = in the presence of N-ethylmaleimide
# T2 sequence (P02699 whole entry): as the sequence (P02699 whole entry) above
compound,measurement,setting,value
"[Cl-].[Cl-].[Zn+2] [zinc, ZnCl2]",effect on stability of rhodopsin segments (difference in unfolding force relative to 0 μM Zn^2+),rhodopsin [1]; [4],stabilizes most segments of the receptor
same,zinc concentration above which the stability of rhodopsin increased,rhodopsin [1]; [5],above 50 μM
same,zinc concentration giving the highest stability of dark state rhodopsin,rhodopsin [1]; [5],200 µM
same,effect on occurrence probabilities of the unfolding pathways,"rhodopsin [1]; zinc 10, 25, 50, 100, 200 and 400 μM, other metal ions 200 μM",leads to a change in the occurrence probabilities of the unfolding pathways
same,effect on ratio of intact to broken Cys110-Cys187 disulfide bonds (65 nm vs 95 nm rhodopsin),[2],favour the level of 65 nm rhodopsin
same,effect on ratio of intact to broken Cys110-Cys187 disulfide bonds (65 nm vs 95 nm rhodopsin),[2]; listed as Zn^2+,clearly stabilizes the disulfide bond in a concentration dependent manner
CCN1C(=O)C=CC1=O [N-ethylmaleimide],fold increase in the proportion of the 65 nm curves,[2]; [6],3.5 fold
same,fraction of total rhodopsin molecules that lack the Cys110-Cys187 bond,[2]; [6],⅛
"[Cl-].[Cl-].[Mg+2] [magnesium, MgCl2]",effect on the stability of rhodopsin,"rhodopsin [1]; 25 mM Mg^2+, FIG. 3B",almost no effect
"[Ca+2].[Cl-].[Cl-] [calcium, CaCl2]",effect on stability of rhodopsin segments (difference in unfolding force relative to 0 μM Zn^2+),rhodopsin [1]; [4],destabilize the majority of the segments
same,effect on stability of rhodopsin segments (difference in unfolding force relative to 0 μM Zn^2+),"rhodopsin [1]; 200 μM metal ion in buffer, FIG. 3A, listed as Ca^2+",destabilize or have no effect on the majority of the segments
endoproteinase Glu-C: protease (Roche Applied Science) used to digest ROS membranes in cleavage experiments,fraction of short curves (<40 nm) of the total curves,rhodopsin [3]; digested sample (untreated sample 23%),55%
same,fraction of ≈65 nm and ≈95 nm long curves,rhodopsin [3]; enzymatically treated sample,2%
"[Cl-].[Cl-].[Co+2] [cobalt, CoCl2]",effect on stability of rhodopsin segments (difference in unfolding force relative to 0 μM Zn^2+),rhodopsin [1],destabilize the majority of the segments; also recorded: destabilize or have no effect on the majority of the segments
"[Cl][Cd][Cl] [cadmium, CdCl2]",effect on stability of rhodopsin segments (difference in unfolding force relative to 0 μM Zn^2+),rhodopsin [1]; [4],destabilize the majority of the segments
same,effect on stability of rhodopsin segments (difference in unfolding force relative to 0 μM Zn^2+),"rhodopsin [1]; 200 μM metal ion in buffer, FIG. 3A, listed as Cd^2+",destabilize or have no effect on the majority of the segments
